Measured values published in PubChem BioAssay (NCI).
Several values for one entry are separate records, joined by “and”; a condition that tells them apart may be missing. Equal values may be shown once.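 48-hour exposure; five concentrations; linearly interpolated endpoints. Abbreviation: GI50, concentration required for 50% inhibition of growth. TGI marks complete inhibition of growth.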

Experiments:
Assay in all cases: NCI tumour cell line growth inhibition, 48 h
[1] = test system: K-562 leukemia
[2] = test system: KM12 colon
[3] = test system: HS 578T breast
[4] = test system: SN12C renal
[5] = test system: HT29 colon
[6] = test system: RXF 393 renal
[7] = test system: MDA-N
[8] = test system: CAKI-1 renal
[9] = test system: RPMI-8226 leukemia
[10] = test system: T-47D breast
[11] = test system: U251 CNS
[12] = test system: PC-3 prostate
[13] = test system: OVCAR-5 ovarian
[14] = test system: SNB-19 CNS
[15] = test system: MALME-3M melanoma

SMILES	TGI [1] [µM]	TGI [2] [µM]	TGI [3] [µM]	TGI [4] [µM]	TGI [5] [µM]	TGI [6] [µM]	TGI [7]	TGI [8] [µM]	TGI [9] [µM]	TGI [10] [µM]	TGI [11] [µM]	TGI [12] [µM]	TGI [13] [µM]	TGI [14] [µM]	TGI [15] [µM]	GI50 [1] [µM]	GI50 [2]	GI50 [7]
O=C(C1=CCC2(CC1)OCCO2)N(Cc1ccccc1)c1ccccc1I	> 100	29.5	22.7	56	36	77.6	96.4 µM	88.3	97.6	59.7	48.1	59.9	36.7	37.3	–	–	–	–
CCOC(=O)c1c2ccccc2n2c(=O)n(C)nnc12	> 100	> 100	> 100	> 100	–	99.1	> 100 µM	> 100	> 100	> 100	> 100	> 100	> 100	> 100	> 100	–	–	–
O=[N+]([O-])/C(Cl)=C(\Sc1ccccc1)C(Cl)=C(Cl)Cl	–	3.21	1.8	1.51	1.8	2.6	0.761 µM	3.88	–	4.88	3.69	4.12	3.66	4.26	1.97	–	–	–
COC(=O)c1ccc(/C=N/c2cc(C)nn2-c2ccccc2)cc1	> 100	> 100	> 100	> 100	92.1	> 100	> 100 µM	> 100	> 100	58	> 100	> 100	> 100	> 100	> 100	–	–	–
O=C(Nc1ccccc1)N1CC(CN2CCN(c3ccccc3)CC2)OC1=O (stereo unspecified)	> 100	> 100	> 100	> 100	> 100	> 100	> 100 µM	> 100	> 100	> 100	> 100	> 100	> 100	> 100	> 100	–	–	–
O=C(CN1CCOCC1)NC1=Nc2ncccc2C(=O)NN1	> 10	> 10	> 10	> 10	> 10	> 10	> 10 µM	–	> 10	> 10	> 10	> 10	> 10	> 10	> 10	–	–	–
c1csc(-c2cc(-c3ccsc3)c(-c3cccs3)s2)c1	> 100	> 100	> 100	> 100	> 100	> 100	> 100 µM	> 100	–	> 100	> 100	> 100	> 100	> 100	> 100	–	–	–
CCN(CC)CC1CCCCN1CC(=O)N1c2ccc(Br)cc2C(=O)Nc2cccnc21 (stereo unspecified)	> 100	> 100	> 100	> 100	> 100	> 100	> 100 µM	> 100	> 100	> 100	> 100	> 100	> 100	> 100	> 100	–	–	–
O=C1CC(CC(O)C(O)CO)CC(=O)N1 (stereo unspecified)	> 100	> 100	> 100	> 100	> 100	–	> 100 µM	> 100	> 100	> 100	> 100	> 100	–	> 100	> 100	–	–	–
O=C(/C=C/c1ccc(O)c(O)c1)Oc1ccccc1	> 100	40.4	49	48.7	48.8	40.1	> 81 µM	32.5	45	65.2	48.3	> 76.9	> 96.3	> 80.9	–	–	–	–
Cc1ccc2c(c1)C(=O)C1(C2)Cc2ccc(C)cc2C1=O	> 100	–	> 100	–	> 100	> 100	> 100 µM	> 100	> 100	> 100	> 100	> 100	> 100	> 100	> 100	–	–	–
Cn1c2nc(=Nc3ccc(Cl)cc3)n3ccc4ccccc4c3c2c(=O)n1-c1ccccc1	> 100	> 100	> 100	> 100	> 100	> 100	> 100 µM	> 100	> 100	> 100	> 100	> 100	> 100	> 100	> 100	–	–	–
CC(C)Nc1n[nH]c(=O)n1C(C)C	> 100	> 100	> 100	> 100	> 100	–	> 100 µM	> 100	> 100	> 100	> 100	> 100	> 100	> 100	–	–	–	–
CC1=CC(=O)c2cccc(O)c2C1=O	20	25.3	7.13	5.11	10.4	3.36	3.34 µM	3.29	> 40.3	3.72	30.2	5.7	14.8	17.4	2.98	–	–	–
C[C@H](C(=O)N1C(=O)O[C@@H](c2ccccc2)[C@H]1C)[C@H](c1ccccc1)N(Cc1ccccc1)OC(=O)c1ccccc1	> 100	> 100	> 100	> 100	> 100	> 100	> 100 µM	> 100	> 100	> 100	> 100	> 100	> 100	> 100	> 100	–	–	–
COc1ccc(-c2c(N)n(-c3cc(OC)cc(OC)c3)c(=O)c3cc([N+](=O)[O-])ccc23)cc1	> 100	> 100	> 100	> 100	> 100	> 100	> 100 µM	> 31.6	> 100	> 100	> 100	> 100	> 100	99.5	> 100	–	–	–

SMILES	TGI [1] [µM]	TGI [2] [µM]	TGI [3] [µM]	TGI [4] [µM]	TGI [5] [µM]	TGI [6] [µM]	TGI [7]	TGI [8] [µM]	TGI [9] [µM]	TGI [10] [µM]	TGI [11] [µM]	TGI [12] [µM]	TGI [13] [µM]	TGI [14] [µM]	TGI [15] [µM]	GI50 [1] [µM]	GI50 [2]	GI50 [7]
COC(=O)c1c(C)cccc1C1CN=NC12Cc1c(C)cccc1C2=O (stereo unspecified)	> 100	> 100	> 100	> 100	> 100	> 100	> 100 µM	> 100	> 100	> 100	> 100	> 100	> 100	> 100	> 100	–	–	–
COC(=O)C1=C(O)C(C(=O)OC)[C@@]2(O)[C@@H](C(=O)OC)C(c3ccc(OC(=O)/C(=C/c4ccccc4)c4ccccc4)cc3)C[C@@H]1[C@@H]2C(=O)OC (stereo partly specified)	> 100	> 100	> 100	> 100	> 100	63.1	87.7 µM	> 100	–	> 100	> 100	> 100	> 100	> 100	> 100	–	–	–
COc1ccc(OC)c2c1C(=O)C(Cl)=C(Cl)C2=O	> 100	33.8	6.06	23.1	15.5	3.65	4.19 µM	7.99	> 27.6	8.09	38.9	27.6	29.6	> 77.4	4.46	–	–	–
Cc1ccc(-c2n[nH]c(=O)n2N)cc1	> 100	> 100	> 100	> 100	> 100	–	> 100 µM	> 100	> 100	> 100	> 100	> 100	> 100	> 100	> 100	–	–	–
CNNC1=NS(=O)(=O)c2cc(C(=O)OC)c(Cl)cc2S1	> 10	> 10	> 10	> 10	> 10	> 10	> 10 µM	> 10	> 10	> 10	> 10	> 10	> 10	> 10	> 10	–	–	–
COC(=O)c1ccc(NCc2cc(O)c3ccccc3c2O)cc1	6.97	> 50	98.2	40	48.5	48.9	3.98 µM	13.4	15.1	40.7	40.1	33.5	50.9	> 81.8	5.95	–	–	–
S=c1scc(-c2ccc(Cl)cc2)n1OC1CCCC1	> 100	> 100	> 100	> 100	> 100	> 100	> 100 µM	> 100	–	> 100	39.7	> 100	> 100	> 100	> 100	–	–	–
COC(=O)c1ccccc1C1CN=NC12Cc1c(C)c3c(c(C)c1C2=O)CCC3 (stereo unspecified)	> 100	> 100	> 100	> 100	> 100	> 100	> 100 µM	> 100	–	> 100	> 100	> 100	> 100	> 100	> 100	–	–	–
Cn1cc(C=C(C#N)C#N)c(=O)n(C)c1=O	–	> 100	> 100	> 100	> 100	> 100	> 100 µM	> 100	> 100	> 100	> 100	> 100	> 100	> 100	–	–	–	–
CC1(C)C2CCC1(C)C(NC(=O)CCN1CCOCC1)C2 (stereo unspecified)	> 100	> 100	> 100	> 100	> 100	> 100	> 100 µM	> 100	–	> 100	> 100	> 100	> 100	> 100	> 100	–	–	–
CC(=O)OCC1OC(Sc2nc(-c3ccc(C)cc3)c(C#N)c(=O)n2C2OC(COC(C)=O)C(OC(C)=O)C(OC(C)=O)C2OC(C)=O)C(OC(C)=O)C(OC(C)=O)C1OC(C)=O (stereo unspecified)	> 100	> 100	> 100	> 100	> 100	> 100	> 100 µM and 64.6 µM	> 100	> 100	> 100	> 100	> 100	> 100	> 100	–	> 100	> 100 µM and 38.7 µM	> 100 µM and 10.1 µM
O=C(CCNC(=O)OCc1ccccc1)OCCCNC(=O)OCc1ccccc1	> 100	> 100	> 100	> 100	> 100	> 100	> 100 µM	–	> 100	> 100	> 100	> 100	> 100	> 100	> 100	–	–	–
COc1cc(C(CN)N(C)C)cc(OC)c1OC (stereo unspecified)	> 100	> 100	> 100	> 100	> 100	> 100	> 100 µM	> 100	–	> 100	> 100	> 100	> 100	> 100	> 100	–	–	–
CCOc1ccccc1N=NC1C(=O)N(C(=O)CC(=O)Nc2ccccc2Cl)N=C1C (stereo unspecified)	–	> 100	89	> 100	> 100	> 100	> 100 µM	> 100	> 100	> 100	> 100	> 100	> 100	–	> 100	–	–	–
Cc1nc(SCC(=O)Nc2ccccc2)c2sc(=S)n(-c3ccccc3)c2n1	–	> 10	> 10	> 10	> 10	> 10	> 10 µM	> 10	> 10	> 10	> 10	> 10	> 10	> 10	> 10	–	–	–
N#C/C(=C\N1CCNC1=S)C(=O)c1ccc2ccccc2c1	> 100	> 100	> 100	> 100	> 100	> 100	> 100 µM	> 100	> 100	> 100	> 100	> 100	> 100	> 100	–	–	–	–
